Values quoted from earlier work as cited in patent US9303066B2 (priority 2011, dated 2016).
Positions of bridges follow the written chain, without caps; N, C: chain ends. Residues, ends and D or L forms follow the SMILES beside them. No end group written: not given here.

Experiments:
[1] = 37° C.
[2] = in vivo, po
GC-C [3] = target: T1, GC-C (Homo sapiens, UniProt P25092); design: from tissue; host or cells: intestinal epithelium (luminal surface) in vivo; conditions: in vivo, po
GC-C [4] = target: T1, GC-C; conditions: cultured GC-C-expressing cells

T1 sequence (P25092 24-1073, species assumed): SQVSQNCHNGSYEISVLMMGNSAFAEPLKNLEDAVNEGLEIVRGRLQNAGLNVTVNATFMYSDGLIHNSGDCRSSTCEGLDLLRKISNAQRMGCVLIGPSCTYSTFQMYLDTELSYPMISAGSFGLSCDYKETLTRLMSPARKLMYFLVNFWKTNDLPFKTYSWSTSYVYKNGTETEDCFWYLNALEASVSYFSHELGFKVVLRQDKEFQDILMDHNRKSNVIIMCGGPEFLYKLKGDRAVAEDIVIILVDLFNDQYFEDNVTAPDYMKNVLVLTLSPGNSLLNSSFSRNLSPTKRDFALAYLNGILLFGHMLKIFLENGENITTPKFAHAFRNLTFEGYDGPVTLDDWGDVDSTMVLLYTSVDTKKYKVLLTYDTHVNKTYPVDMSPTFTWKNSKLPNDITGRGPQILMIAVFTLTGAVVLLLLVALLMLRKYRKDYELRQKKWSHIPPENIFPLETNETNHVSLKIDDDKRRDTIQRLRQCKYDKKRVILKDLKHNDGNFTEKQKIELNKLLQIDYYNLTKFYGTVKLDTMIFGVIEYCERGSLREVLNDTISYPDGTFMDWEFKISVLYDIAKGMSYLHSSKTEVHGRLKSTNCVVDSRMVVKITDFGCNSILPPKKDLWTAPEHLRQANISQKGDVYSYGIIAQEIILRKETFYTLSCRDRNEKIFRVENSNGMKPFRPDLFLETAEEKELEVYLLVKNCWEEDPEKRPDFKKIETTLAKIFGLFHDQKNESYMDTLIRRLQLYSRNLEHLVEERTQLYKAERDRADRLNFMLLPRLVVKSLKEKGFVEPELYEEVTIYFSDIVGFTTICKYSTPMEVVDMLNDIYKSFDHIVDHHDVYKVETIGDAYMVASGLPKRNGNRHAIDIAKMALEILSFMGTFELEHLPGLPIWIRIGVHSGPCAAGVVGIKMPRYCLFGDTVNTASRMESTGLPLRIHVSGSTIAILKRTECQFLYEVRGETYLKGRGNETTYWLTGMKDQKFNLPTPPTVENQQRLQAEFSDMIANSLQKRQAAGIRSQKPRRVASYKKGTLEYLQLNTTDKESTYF

Molecule: NDDCELCVNVACTGCL (cysteine pairing not given here) [human Ugn]
- half-life of each form (A and B conformation) [1]: about 2 days

Molecule: C[C@@H]1NC(=O)[C@@H]2CCCN2C(=O)[C@H](CC(N)=O)NC(=O)[C@@H]2CSSC[C@H](N)C(=O)N[C@H]3CSSC[C@H](NC1=O)C(=O)N[C@@H]([C@@H](C)O)C(=O)NCC(=O)N[C@H](C(=O)N[C@@H](Cc1ccc(O)cc1)C(=O)O)CSSC[C@H](NC(=O)[C@H](Cc1ccc(O)cc1)NC(=O)[C@H](CCC(=O)O)NC3=O)C(=O)N2 [Linaclotide] (H-CCEYCCNPACTGCY-OH; disulfide 1-6, 2-10, 5-13)
- levels seen systemically [2]: no detectable levels
- GI transit (GC-C [3]): increased GI transit
- bloating (GC-C [3]): reduced bloating
- visceral pain (GC-C [3]): reduced visceral pain

Molecule: UgnB: B conformational stereoisomer of human uroguanylin, separated by HPLC (NDDCELCVNVACTGCL; disulfide 4-12, 7-15; also: B conformational stereoisomer (HPLC-separated); UniProt Q16661 97-112, looked up)
- fold less potent than UgnA (GC-C [4]): more than 100 fold
